According to patent publication US9370589B2, “Switching fluorescent nanoparticle probe and fluorescent particle imaging method using same” (SHIMADZU CORPORATION, priority 2010, dated 2016):

Columns and labels:
[1] = Fluorescence intensity before and after change in external environment (addition of plasma); conditions: for Fluorescence maximum: lactosome (PSar-PLLA) containing 20 mol % of dye (IC7-2: 15 mol %), addition of plasma, polymer 1/15 mg/mL; for Fluorescence intensity (A) / Fluorescence intensity (PBS)(B) / Ratio of fluorescence intensity (A/B): lactosome containing 20 mol % of dye (IC7-2: 15 mol %); for Fluorescence intensity (A): after addition of plasma; for Fluorescence intensity (PBS)(B): in PBS, at the plasma fluorescence maximum wavelength; for Ratio of fluorescence intensity (A/B): plasma versus PBS
Experimental: Requirements for recovery of fluorescence intensity under in vivo conditions were studied. A water dispersion of the lactosome encapsulating 20 mol % of IC7-1 in a carrier agent PSar-PLLA (1 mg/mL) and phosphate buffered saline (PBS), plasma (collected from a male ddY), 5 wt % albumin (BSA), or 5 wt % SDS were mixed 1:1 (volume ratio), respectively, and the mixture was allowed to stand at room temperature for 30 minutes under lightproof conditions, and then diluted with PBS so that the concentration of the amphiphilic polymer was 1/15 mg/mL to measure a fluorescence spectrum (FIG. 3(a)).

albumin (BSA) = albumin (BSA) (Bos taurus, UniProt P02769); test: Fluorescence intensity before and after change in external environment (addition of 5 wt % BSA); conditions: lactosome containing 20 mol % of dye (IC7-2: 15 mol %); for Ratio of fluorescence intensity (A/B): 5 wt % BSA versus PBS; for Fluorescence maximum: addition of 5 wt % BSA, polymer 1/15 mg/mL; for Fluorescence intensity (A): after addition of 5 wt % BSA; for Fluorescence intensity (PBS)(B): in PBS, at the BSA fluorescence maximum wavelength
Chain of albumin (BSA) (P02769 25-607): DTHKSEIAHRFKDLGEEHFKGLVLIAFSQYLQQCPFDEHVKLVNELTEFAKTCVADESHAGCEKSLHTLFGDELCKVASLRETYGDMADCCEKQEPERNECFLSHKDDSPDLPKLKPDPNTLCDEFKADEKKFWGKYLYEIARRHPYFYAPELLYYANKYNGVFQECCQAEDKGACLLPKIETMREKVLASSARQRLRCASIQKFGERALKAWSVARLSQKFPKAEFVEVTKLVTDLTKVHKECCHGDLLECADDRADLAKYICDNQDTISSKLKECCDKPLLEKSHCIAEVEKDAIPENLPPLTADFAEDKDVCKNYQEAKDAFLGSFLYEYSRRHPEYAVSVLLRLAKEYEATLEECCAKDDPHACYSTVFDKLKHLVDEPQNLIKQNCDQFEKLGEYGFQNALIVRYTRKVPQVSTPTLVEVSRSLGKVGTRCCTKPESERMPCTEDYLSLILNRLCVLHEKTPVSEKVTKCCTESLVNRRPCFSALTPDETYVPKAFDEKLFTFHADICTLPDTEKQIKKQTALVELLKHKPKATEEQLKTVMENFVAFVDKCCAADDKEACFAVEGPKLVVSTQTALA
Description: (§1) Requirements for recovery of fluorescence intensity under in vivo conditions were studied.
(§2) It is to be noted that specific composition of the phosphate buffered saline (PBS) is as follows: 29 g of Na2HPO4.12H2O, 2.96 g of NaH2PO4.2H2O, and 8.7 g of NaCl per 1 liter of ultrapure water.

[2] = Fluorescence intensity before and after change in external environment (addition of 5 wt % SDS); conditions: lactosome containing 20 mol % of dye (IC7-2: 15 mol %); for Ratio of fluorescence intensity (A/B): 5 wt % SDS versus PBS; for Fluorescence maximum: addition of 5 wt % SDS, polymer 1/15 mg/mL; for Fluorescence intensity (A): after addition of 5 wt % SDS; for Fluorescence intensity (PBS)(B): in PBS, at the SDS fluorescence maximum wavelength
Description: as §1, §2

[3] = Absorption and fluorescence spectra of fluorescent dye-encapsulating lactosomes in ultrapure water; type: physicochemical; conditions: polymer 1 mg/mL; for absorption maximum / Fluorescence maximum: lactosome encapsulating 1 mol % of dye
Experimental: Among the lactosomes encapsulating the fluorescent dye IC7-1 (IC7-1/Lactosomes) obtained in Example 1-1, the freeze-dried products of the lactosomes each encapsulating 1 mol %, 5 mol %, 10 mol % and 20 mol % of the fluorescent dye were subjected to measurement of absorption spectra and fluorescence spectra in the following manner.
The measurement of absorption spectra was performed to confirm that each of these lactosomes encapsulated the fluorescent dye according to their respective fluorescent dye blend ratios. Further, the measurement of fluorescence intensity of the fluorescent dye-encapsulating lactosomes was performed. The measurement of absorption spectra was performed using an ultraviolet-visible spectrophotometer (UVmini-1240, manufactured by SHIMADZU CORPORATION). The measurement of fluorescence spectra was performed at an excitation wavelength of 785 nm in the range of 700 to 900 nm using a fluorescence spectrophotometer (RF-5300PC, manufactured by SHIMADZU CORPORATION).
Each of the fluorescent dye-encapsulating lactosomes was dispersed in ultrapure water so that the concentration of the amphiphilic polymer was 1 mg/mL to measure absorption and fluorescence spectra (FIG. 1). The lactosome encapsulating 1 mol % of IC7-1 had adsorption maximum at 831 nm and fluorescence maximum at 836 nm. Although the intensity of absorbance increased as the fluorescent dye content increased, the intensity of fluorescence was highest when the fluorescent dye content was 1 mol %, and was reduced to about 1/120 when the fluorescent dye content was 20 mol % as compared to when the fluorescent dye content was 1 mol % (FIGS. 1(a) and 1(b)). The lactosome encapsulating 1 mol % of IC7-2 had absorption maximum at 831 nm and fluorescence maximum at 833 nm. […] Also when IC7-2 was contained, quenching of fluorescence was observed. The intensity of fluorescence was reduced to about ⅛ when the IC7-2 content was 20 mol % as compared to when the IC7-2 content was 1 mol % (FIGS. 1(c) and 1(d)).
Among the lactosomes encapsulating the fluorescent dye IC7-1 (IC7-1/Lactosomes) obtained in Example 1-1, the lactosomes each encapsulating 0.5 mol % (for comparison), 1 mol %, 2 mol %, 4 mol %, 8 mol %. 12 mol %, 16 mol %, or 20 mol % of the fluorescent dye IC7-1 (IC7-1/Lactosomes) were dispersed in ultrapure water so that the concentration of the amphiphilic polymer was 1 mg/mL to measure the maximum value of fluorescence at an excitation wavelength of 785 nm (FIG. 2(a)).

[4] = Dependence of fluorescence intensity of fluorescent dye-encapsulating lactosome on fluorescent dye content; type: physicochemical; conditions: for intensity of fluorescence by adding SDS, BSA, or plasma: lactosome with varied dye content; for fluorescent dye content at which the intensity of fluorescence in PBS was maximized: polymer 1/15 mg/mL
Experimental: Lactosomes encapsulating, as a fluorescent dye, IC7-1, IC7-2, IR820, IR783, or IR806 were prepared by changing the fluorescent dye content (1 mg/mL), and were then mixed with PBS, 5 wt % SDS, 5 wt % BSA, or plasma 1:1 (volume ratio), and the mixture was allowed to stand at room temperature for 30 minutes under lightproof conditions, and then diluted with PBS so that the concentration of the amphiphilic polymer was 1/15 mg/mL to measure the intensity of fluorescence using Fluorolog-3 (HORIBA Jobin Yvon Inc.) (FIG. 6).

N#CC1=c2cc3c4c(c2Oc2c1cc1c5c2CCCN5CCC1)CCC[N+]=4CCC3 [Rhodamine 800]
Fluorescence maximum [1]: 699 nm
Fluorescence intensity (A) [1]: 138170
Fluorescence intensity (PBS)(B) [1]: 82260
Ratio of fluorescence intensity (A/B) [1]: 1.7
Ratio of fluorescence intensity (A/B) (albumin (BSA)): 1.7
Fluorescence maximum (albumin (BSA)): 699 nm
Fluorescence intensity (A) (albumin (BSA)): 139250
Fluorescence intensity (PBS)(B) (albumin (BSA)): 82260
Ratio of fluorescence intensity (A/B) [2]: 1.9
Fluorescence maximum [2]: 702 nm
Fluorescence intensity (A) [2]: 152580
Fluorescence intensity (PBS)(B) [2]: 80647

CC1(C)C(/C=C/C2=C(Cl)C(=C/C=C3\N(CCCCCC(=O)O)c4ccc5ccccc5c4C3(C)C)/CCC2)=[N+](CCO)c2ccc3ccccc3c21.[I-] [IC7-1]
absorption maximum [3]: 831 nm
Fluorescence maximum ([3]; excitation 785 nm): 836 nm
intensity of fluorescence at 20 mol % dye content as compared to 1 mol % (reduced to) ([3]; lactosome): about 1/120
fluorescent dye content at which the intensity of fluorescence was highest ([3]; lactosome, excitation 785 nm): 1 mol %
increase of fluorescent dye content by which fluorescence intensity per 1 μM dye is reduced to ½ ([3]; lactosome, until content reached 8 mol %): 0.78 mol %
intensity of fluorescence by adding SDS, BSA, or plasma [4]: increased with dependence on fluorescent dye content
fluorescent dye content at which the intensity of fluorescence in PBS was maximized ([4]; lactosome): 1 mol %
increase of encapsulated fluorescent dye amount by which fluorescence intensity per certain amount of dye is reduced to ½ ([4]; lactosome, amphiphilic polymer concentration 1/15 mg/mL): 1.12 mol %
Fluorescence maximum [1]: 844 nm
Fluorescence intensity (A) [1]: 199746
Fluorescence intensity (PBS)(B) [1]: 696
Ratio of fluorescence intensity (A/B) [1]: 287.0
Ratio of fluorescence intensity (A/B) (albumin (BSA)): 156.3
Fluorescence maximum (albumin (BSA)): 837 nm
Fluorescence intensity (A) (albumin (BSA)): 92384
Fluorescence intensity (PBS)(B) (albumin (BSA)): 591
Ratio of fluorescence intensity (A/B) [2]: 204.5
Fluorescence maximum [2]: 852 nm
Fluorescence intensity (A) [2]: 141929
Fluorescence intensity (PBS)(B) [2]: 694

CC1(C)C(/C=C/C=C/C=C/C=C2\N(CCCCS(=O)(=O)O)c3ccc4ccccc4c3C2(C)C)=[N+](CCCCS(=O)(=O)[O-])c2ccc3ccccc3c21 [ICG, indocyanine green]
Fluorescence maximum [1]: 824 nm
Fluorescence intensity (A) [1]: 342590
Fluorescence intensity (PBS)(B) [1]: 5212
Ratio of fluorescence intensity (A/B) [1]: 65.7
Ratio of fluorescence intensity (A/B) (albumin (BSA)): 33.4
Fluorescence maximum (albumin (BSA)): 802 nm
Fluorescence intensity (A) (albumin (BSA)): 148650
Fluorescence intensity (PBS)(B) (albumin (BSA)): 4454
Ratio of fluorescence intensity (A/B) [2]: 71.9
Fluorescence maximum [2]: 821 nm
Fluorescence intensity (A) [2]: 382900
Fluorescence intensity (PBS)(B) [2]: 5327

O=C(O)c1ccccc1C1=c2cc3c4c(c2Oc2c1cc1c5c2CCCN5CCC1)CCC[N+]=4CCC3 [Rhodamine 101]
Fluorescence maximum [1]: 601 nm
Fluorescence intensity (A) [1]: 154280
Fluorescence intensity (PBS)(B) [1]: 163410
Ratio of fluorescence intensity (A/B) [1]: 0.9
Ratio of fluorescence intensity (A/B) (albumin (BSA)): 1.1
Fluorescence maximum (albumin (BSA)): 600 nm
Fluorescence intensity (A) (albumin (BSA)): 171710
Fluorescence intensity (PBS)(B) (albumin (BSA)): 163500
Ratio of fluorescence intensity (A/B) [2]: 1.5
Fluorescence maximum [2]: 598 nm
Fluorescence intensity (A) [2]: 249130
Fluorescence intensity (PBS)(B) [2]: 162110

CC1(C)C(/C=C/C2=C(Cl)C(=C/C=C3/C=CN(CCO)c4ccccc43)/CCC2)=[N+](CCCCCC(=O)O)c2ccc3ccccc3c21.[I-] [IC7-2]
absorption maximum [3]: 831 nm
Fluorescence maximum ([3]; excitation 785 nm): 833 nm
intensity of fluorescence at 20 mol % dye content as compared to 1 mol % (reduced to) ([3]; lactosome): about ⅛
intensity of fluorescence by adding SDS, BSA, or plasma [4]: increased with dependence on fluorescent dye content
fluorescent dye content at which the intensity of fluorescence in PBS was maximized ([4]; lactosome): 2.5 mol %
Fluorescence maximum [1]: 901 nm
Fluorescence intensity (A) [1]: 241880
Fluorescence intensity (PBS)(B) [1]: 14224
Ratio of fluorescence intensity (A/B) [1]: 17.0
Ratio of fluorescence intensity (A/B) (albumin (BSA)): 13.1
Fluorescence maximum (albumin (BSA)): 903 nm
Fluorescence intensity (A) (albumin (BSA)): 185345
Fluorescence intensity (PBS)(B) (albumin (BSA)): 14147
Ratio of fluorescence intensity (A/B) [2]: 7.9
Fluorescence maximum [2]: 916 nm
Fluorescence intensity (A) [2]: 124942
Fluorescence intensity (PBS)(B) [2]: 15816
